Assay results as given in patent US11453847B2, “Laundry sheet” (priority 2018, dated 2022).

What was measured:
Water flea = settings: in vivo
Protocol: (§1) (4) An ecotoxicity test was performed on various alkyl polyglucosides.

Algal = settings: in vivo
Protocol: as §1

Row | Substance | Water flea test EC50 (49 h) (Water flea) [µg/mL] | Algal test EC50 (72 h) (Algal) [µg/mL]
1 | fatty acid methyl ester ethoxylate [FMEE] | 79.2 | >100
2 | alkyl ethoxylate [AEO] | 1.9 | 1.2
